# According to ChEMBL document CHEMBL1159004, “Four new antibacterial sesterterpenes from a marine sponge of the genus Luffariella” (1992):
# What was measured:
# Assay type in all cases: functional
# Micrococcus luteus = experiment: Antibacterial activity against Micrococcus luteus ATCC 9341 by TLC bioautographic test
# Bacillus subtilis = experiment: Antibacterial activity against Bacillus subtilis ATCC […] by TLC bioautographic test
# Escherichia coli = experiment: Antibacterial activity against Escherichia coli ATCC 25922 by TLC bioautographic test
SMILES,Activity (Micrococcus luteus) [µg],Activity (Bacillus subtilis) [µg],Activity (Escherichia coli) [µg]
CC(=O)OC/C(=C\C[C@H]1OC(=O)C=C1CO)CC/C=C(\C)CCC1=C(C)CCCC1(C)C,8,2,–
CC(=O)OC/C(=C\C[C@H]1OC(=O)CC1CO)CC/C=C(\C)CCC1=C(C)CCCC1(C)C (stereo partly drawn),3,11,–
CC1=C(CC/C(C)=C/CC/C(C=O)=C\C[C@H]2OC(=O)C=C2CO)C(C)(C)CCC1,4,4,–
CC1=C(CC/C(C)=C/CC/C(=C/C[C@H]2OC(=O)CC2CO)CO)C(C)(C)CCC1 (stereo partly drawn),5,–,1
